Biological target: T1, Cathepsin B (EC 3.4.22.1, from human liver) (Homo sapiens, UniProt P07858)
T1 construct: Cathepsin B (EC 3.4.22.1, from human liver) was purchased from Sigma Chemical Company; purchased Sigma Chemical Company (St. Louis, Mo.); host or cells: human liver
Test: High-throughput fluorometric cathepsin B assay (Z-F-R-AMC substrate)
Assay type: biochemical
Conditions: cruzain versus cathepsin B IC50
Procedure: A fluorometric high throughput cathepsin B assay for detecting inhibitory activity was developed in 96-well microtiter plate format. Benzyloxy-Phe-Arg-AMC (Z-F-R-AMC; Molecular Probes, Inc., Eugene, Oreg.) was the substrate used in the assay (Km=150 μM). Cathepsin B (EC 3.4.22.1, from human liver) was purchased from Sigma Chemical Company (St. Louis, Mo.) in a stock solution containing 25 μg of the protein in 25 μl buffer (i.e., 20 mM sodium acetate, pH 5.0, and 1 mM EDTA).
The bioassay of the compounds was performed on a Sagian/Beckman Integrated robotic system (Beckman, Fullerton, Calif.). Inhibition of enzyme activity was measured via fluorescent detection. Fluorescence readings were taken at an excitation wavelength of […] (λmax=350 nm) and an emission wavelength of 430 nm (λmax=430 nm) on a BMG FluoStar (BMG, Durham, N.C.). […]
The reaction was initiated by the addition of the cathepsin B (0.46 ng/ml) in the assay buffer containing dithiothreitol (giving a final concentration of 1.5 mM). […] The activity was obtained by observing the end point absorbance reading after quenching. The percentage of inhibition was calculated by dividing the absorbance measured in the presence of inhibitor plus enzyme (inhibited signal) by the absorbance measured in the presence of enzyme alone (full signal) minus the absorbance obtained in the absence of both inhibitors and the enzyme (background). […]

`O=C(Nc1ccc(CNC(=O)C(=O)c2ccc(-c3ccccc3)cc2)cc1)Nc1ccc(-c2ccccc2)cc1` [Compound 4] was tested, and the “selectivity over cathepsin B” value was “greater than 20 fold”.

From patent US6452050B1, “Synthesis and use of α-ketoamide derivatives and arrays” (ArQule, Inc., priority 1997, dated 2002)
